Measured values from PubChem BioAssay AID2060883 (Molecular Pharmacology Branch, DTP, NCI, 2025).
pIC50: −log10 of the molar value.

System: 843782-103-R-J1-PDC complex spheroid viability
Test: Anticancer human tumor 843782-103-R-J1-PDC patient-derived lung adenocarcinoma cell line growth inhibition [RAS]
Details: for pIC50: curve of first compound; for viability, T/C: stronger effect = lower value
Procedure, shortened: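 Multi-cell-type spheroids: tumor cells plus HUVEC endothelial cells and mesenchymal stem cells. RAS-pathway inhibitors were combined with targeted agents, each dosed in half-log steps down from clinical Cmax, or from 10 microM when Cmax was unknown.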
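Note: viability read after seven days of compound exposure.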

## C=CC(=O)Nc1cc(Nc2nccc(-c3cn(C)c4ccccc34)n2)c(OC)cc1N(C)CCN(C)C + CCn1c(-c2cc(N3CCN(C)CC3)cnc2C(C)OC)c2c3cc(ccc31)-c1csc(n1)CC(NC(=O)C1CC1C)C(=O)N1CCCC(N1)C(=O)OCC(C)(C)C2
Second compound 0.000949 µM
  pIC50: 6.53
Second compound 0.003 µM
  pIC50: 7.54
Second compound 0.00949 µM
  pIC50: > 8.50
Second compound 0.03 µM
  pIC50: > 8.50
Second compound 0.0949 µM
  pIC50: > 8.50
Second compound 0.3 µM
  pIC50: > 8.50
Second compound 0.000949 µM, first compound 0.00316 µM
  viability, T/C: 81.5%
Second compound 0.000949 µM, first compound 0.01 µM
  viability, T/C: 69%
Second compound 0.000949 µM, first compound 0.0316 µM
  viability, T/C: 71.1%
Second compound 0.000949 µM, first compound 0.1 µM
  viability, T/C: 56.2%
Second compound 0.000949 µM, first compound 0.316 µM
  viability, T/C: 49.4%
Second compound 0.000949 µM, first compound 1 µM
  viability, T/C: 41.3%
Second compound 0.003 µM, first compound 0.00316 µM
  viability, T/C: 60.1%
Second compound 0.003 µM, first compound 0.01 µM
  viability, T/C: 55.5%
Second compound 0.003 µM, first compound 0.0316 µM
  viability, T/C: 50%
Second compound 0.003 µM, first compound 0.1 µM
  viability, T/C: 41%
Second compound 0.003 µM, first compound 0.316 µM
  viability, T/C: 33.9%
Second compound 0.003 µM, first compound 1 µM
  viability, T/C: 30.2%
Second compound 0.00949 µM, first compound 0.00316 µM
  viability, T/C: 34.9%
Second compound 0.00949 µM, first compound 0.01 µM
  viability, T/C: 32.6%
Second compound 0.00949 µM, first compound 0.0316 µM
  viability, T/C: 32.1%
Second compound 0.00949 µM, first compound 0.1 µM
  viability, T/C: 25.7%
Second compound 0.00949 µM, first compound 0.316 µM
  viability, T/C: 26.9%
Second compound 0.00949 µM, first compound 1 µM
  viability, T/C: 18.3%
Second compound 0.03 µM, first compound 0.00316 µM
  viability, T/C: 18.6%
Second compound 0.03 µM, first compound 0.01 µM
  viability, T/C: 19.4%
Second compound 0.03 µM, first compound 0.0316 µM
  viability, T/C: 17.6%
Second compound 0.03 µM, first compound 0.1 µM
  viability, T/C: 16.9%
Second compound 0.03 µM, first compound 0.316 µM
  viability, T/C: 17.6%
Second compound 0.03 µM, first compound 1 µM
  viability, T/C: 14.2%
Second compound 0.0949 µM, first compound 0.00316 µM
  viability, T/C: 17.8%
Second compound 0.0949 µM, first compound 0.01 µM
  viability, T/C: 13.2%
Second compound 0.0949 µM, first compound 0.0316 µM
  viability, T/C: 13.7%
Second compound 0.0949 µM, first compound 0.1 µM
  viability, T/C: 15.4%
Second compound 0.0949 µM, first compound 0.316 µM
  viability, T/C: 14%
Second compound 0.0949 µM, first compound 1 µM
  viability, T/C: 12.8%
Second compound 0.3 µM, first compound 0.00316 µM
  viability, T/C: 13.8%
Second compound 0.3 µM, first compound 0.01 µM
  viability, T/C: 13.2%
Second compound 0.3 µM, first compound 0.0316 µM
  viability, T/C: 10.6%
Second compound 0.3 µM, first compound 0.1 µM
  viability, T/C: 11.8%
Second compound 0.3 µM, first compound 0.316 µM
  viability, T/C: 13.6%
Second compound 0.3 µM, first compound 1 µM
  viability, T/C: 10.4%
